The values below come from patent US9120812B2, “Pyrimidooxazocine derivatives as mTOR-inhibitors” (SANOFI, priority 2012, dated 2015).

The target in assay [1] is mTOR (human recombinant aa mTOR 1360-2549) (Homo sapiens (Human), UniProt P42345). Nature of the assay: mTOR enzymatic test by TR-FRET (phosphorylation of GFP-4EBP1). The format is biochemical. On the procedure: Model 1: mTOR Enzymatic Test by TR-FRET (Time-resolved Fluorescence Resonance Energy Transfer).
The test detects the phosphorylation of the substrate GFP-4EBP1 using a terbium-labelled antibody that is specific for the phospho-Thr46 epitope. Binding of the Tb-antibody to the phosphorylated GFP peptide allows the transfer of energy from Tb, excited at 340 nm, to GFP with an increase in the fluorescence emission of the GFP at 520 nm. […] The mixture is incubated for 30 minutes at room temperature. 10 μl of solution are taken up and the reaction is quenched by adding 10 μl of Tb-antibody solution (Invitrogen PV4757)/EDTA (2 nM Tb-Ac and 10 mM EDTA final). After 60 minutes at room temperature, the fluorescence at 490 nm, from the Tb emission, and at 520 nm, from the GFP emission, is measured in a BMG PHERAstar reader equipped with a Lanthascreen™ filter (excitation at 340 nm, emission at 490 and 520 nm). The results are given in the form of the 520/490 ratio.
Background: TR-FRET usually uses a lanthanide donor and a delayed reading to cut background.

A further assay deals with PI3Kα (p110α/p85α) (Homo sapiens (Human), UniProt P42336). Nature of the assay: PI3Kα enzymatic test by measuring the consumption of ATP. It counts as biochemical. The protocol: Model 2: PI3Kα Enzymatic Test by Measuring the Consumption of ATP.
PI3Kα (p110α/p85α), sequence (P42336 whole entry): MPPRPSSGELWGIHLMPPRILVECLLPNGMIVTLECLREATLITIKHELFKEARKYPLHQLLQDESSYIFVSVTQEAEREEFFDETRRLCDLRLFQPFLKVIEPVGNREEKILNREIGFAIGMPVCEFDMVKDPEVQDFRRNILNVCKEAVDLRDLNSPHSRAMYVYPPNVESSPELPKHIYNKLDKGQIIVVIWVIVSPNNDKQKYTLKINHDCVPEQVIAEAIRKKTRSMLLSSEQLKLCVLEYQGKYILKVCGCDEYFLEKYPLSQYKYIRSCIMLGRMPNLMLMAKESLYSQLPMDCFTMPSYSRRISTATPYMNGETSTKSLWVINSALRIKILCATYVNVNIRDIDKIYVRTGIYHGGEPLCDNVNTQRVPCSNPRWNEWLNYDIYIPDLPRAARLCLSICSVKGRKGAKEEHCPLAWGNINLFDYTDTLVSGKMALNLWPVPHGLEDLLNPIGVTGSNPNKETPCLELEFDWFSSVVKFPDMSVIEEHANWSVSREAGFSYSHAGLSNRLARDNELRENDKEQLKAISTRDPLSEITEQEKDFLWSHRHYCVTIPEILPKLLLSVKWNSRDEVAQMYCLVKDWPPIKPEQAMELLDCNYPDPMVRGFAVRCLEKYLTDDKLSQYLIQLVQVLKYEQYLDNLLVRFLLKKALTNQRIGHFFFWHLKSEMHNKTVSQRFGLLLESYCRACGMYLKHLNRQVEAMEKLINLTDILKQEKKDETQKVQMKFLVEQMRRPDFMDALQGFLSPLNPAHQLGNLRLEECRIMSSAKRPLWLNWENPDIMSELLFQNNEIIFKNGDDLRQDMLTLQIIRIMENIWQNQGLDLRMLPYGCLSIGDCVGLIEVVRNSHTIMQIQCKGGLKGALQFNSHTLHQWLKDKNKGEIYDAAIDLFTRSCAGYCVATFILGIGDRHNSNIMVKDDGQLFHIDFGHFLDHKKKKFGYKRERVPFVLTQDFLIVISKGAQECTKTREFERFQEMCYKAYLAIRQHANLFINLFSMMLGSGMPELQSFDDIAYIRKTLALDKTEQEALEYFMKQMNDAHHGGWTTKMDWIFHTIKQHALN
PI3Kα (p110α/p85α), sequence (P27986 whole entry partner): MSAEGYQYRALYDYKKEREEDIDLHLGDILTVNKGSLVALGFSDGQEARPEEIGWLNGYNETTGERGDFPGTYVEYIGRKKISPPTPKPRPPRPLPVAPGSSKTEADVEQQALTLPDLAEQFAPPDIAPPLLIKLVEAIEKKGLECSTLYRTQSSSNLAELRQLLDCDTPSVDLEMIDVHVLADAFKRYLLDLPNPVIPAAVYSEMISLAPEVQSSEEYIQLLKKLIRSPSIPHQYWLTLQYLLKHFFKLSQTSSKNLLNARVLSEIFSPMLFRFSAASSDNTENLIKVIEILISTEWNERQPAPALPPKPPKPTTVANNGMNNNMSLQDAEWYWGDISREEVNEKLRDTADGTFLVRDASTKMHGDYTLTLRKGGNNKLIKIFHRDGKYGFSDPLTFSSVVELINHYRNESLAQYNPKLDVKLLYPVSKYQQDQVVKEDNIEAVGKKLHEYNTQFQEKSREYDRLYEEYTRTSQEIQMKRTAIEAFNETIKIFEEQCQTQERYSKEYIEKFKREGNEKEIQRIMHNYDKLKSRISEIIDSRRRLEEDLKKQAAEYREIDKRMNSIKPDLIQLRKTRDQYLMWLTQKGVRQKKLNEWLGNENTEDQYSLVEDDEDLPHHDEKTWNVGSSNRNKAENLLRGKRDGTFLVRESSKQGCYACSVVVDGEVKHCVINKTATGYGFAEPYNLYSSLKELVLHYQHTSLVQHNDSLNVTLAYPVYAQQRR
The test uses a lucifeurerin/luciferase system to measure the concentration of ATP and its consumption during the enzymatic reaction. The test is performed in 96-well format (Corning/Costar 96 black flat-bottomed half-wells plate, ref. 3694) in a total volume of 30 μl.
To 1 μl of inhibitor in 100% DMSO are added (final concentrations) 50 μM of the substrate PIP2 ((L-α-phosphatidyl-D-myoinositol 4,5-bisphosphate, Echelon 117P-4516-0500), 2 μM of ATP and 1.7 μg/ml of PI3Kα, (p110α/p85α, Invitrogen PV4788) in a buffer of Tris/HCl 50 mM pH 7.5, EGTA 1 mM, MgCl2 10 mM, Chaps 0.03%, 1 mM DTT). After 90 minutes, the reaction is quenched by adding 20 μl/well of KinaseGlo reagent (Promega V6713). After 10 minutes in the dark, the luminescence is read on the PHERAStar microplate reader (reading at 0.8 sec/well).
The IC50 values are determined by the preparation of successive threefold dilutions on at least a scale of 10 000.

For the next assay, the system named is U87MG tumour cells. Put plainly: Test of in vitro proliferation of U87MG tumour cells. It counts as cell-based. The conditions noted are these: U87MG cells, 72 hours, read-out: U87 Cell Proliferation IC50. On the procedure:
Model 4: Test of in vitro Proliferation of U87MG Tumour Cells.
The cell growth is determined with the reagent CellTiter 96 AQueous One Solution Cell Proliferation Assay from Promega (Cat. No. G3581).

Where [2] appears, read: Homo sapiens, U-87 MG, read-out: U87 Akt-pS473 % Inhibition or IC50, nM (IC50), U87MG cells.

Like-named read-outs stand apart in the source and are kept apart here. Where only a bound is given, the exact number is not on record here.

mTOR (human recombinant aa mTOR 1360-2549), sequence (P42345 1360-2549): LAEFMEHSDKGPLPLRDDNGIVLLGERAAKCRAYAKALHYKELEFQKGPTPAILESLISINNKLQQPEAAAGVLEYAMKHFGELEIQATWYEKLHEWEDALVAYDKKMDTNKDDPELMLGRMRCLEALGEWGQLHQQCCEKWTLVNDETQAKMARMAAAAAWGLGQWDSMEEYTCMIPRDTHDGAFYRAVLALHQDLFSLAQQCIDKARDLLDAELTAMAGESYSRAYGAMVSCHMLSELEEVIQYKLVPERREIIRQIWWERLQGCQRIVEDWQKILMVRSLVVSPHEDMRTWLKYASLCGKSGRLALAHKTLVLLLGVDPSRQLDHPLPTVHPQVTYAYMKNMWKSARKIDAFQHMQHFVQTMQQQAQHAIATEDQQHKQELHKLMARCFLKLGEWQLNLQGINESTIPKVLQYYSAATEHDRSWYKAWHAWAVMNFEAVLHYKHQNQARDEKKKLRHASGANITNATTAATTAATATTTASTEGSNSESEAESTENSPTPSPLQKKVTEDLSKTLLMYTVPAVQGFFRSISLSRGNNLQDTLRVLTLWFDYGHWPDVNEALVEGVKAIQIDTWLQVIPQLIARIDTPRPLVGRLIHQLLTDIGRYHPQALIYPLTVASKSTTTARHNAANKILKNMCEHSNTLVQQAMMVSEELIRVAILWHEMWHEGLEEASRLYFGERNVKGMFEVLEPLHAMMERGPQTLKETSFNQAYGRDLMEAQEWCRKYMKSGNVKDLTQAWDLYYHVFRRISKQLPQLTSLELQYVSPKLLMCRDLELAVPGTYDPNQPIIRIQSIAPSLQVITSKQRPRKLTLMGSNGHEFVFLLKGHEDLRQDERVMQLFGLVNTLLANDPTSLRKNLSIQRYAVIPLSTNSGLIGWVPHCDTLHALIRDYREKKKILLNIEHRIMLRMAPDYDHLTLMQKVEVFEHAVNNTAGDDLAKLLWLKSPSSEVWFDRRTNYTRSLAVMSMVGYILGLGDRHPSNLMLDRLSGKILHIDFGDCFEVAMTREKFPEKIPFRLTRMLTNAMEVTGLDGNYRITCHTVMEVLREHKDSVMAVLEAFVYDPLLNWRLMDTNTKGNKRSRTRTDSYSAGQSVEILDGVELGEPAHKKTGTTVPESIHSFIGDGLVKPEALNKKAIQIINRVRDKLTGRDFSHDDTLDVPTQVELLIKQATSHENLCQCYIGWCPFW

Consider `CCN1CC(C)(C)Oc2nc(N3CCOC[C@@H]3C)nc(-c3ccc(NC(=O)Nc4ccc(C)cn4)cc3)c2C1=O` [Example 169, 1-{4-[6-Ethyl-8,8-dimethyl-2-((S)-3-methylmorpholin-4-yl)-5-oxo-5,6,7,8-tetrahydro-9-oxa-1,3,6-triazabenzocyclohepten-4-yl]phenyl}-3-(5-methylpyridin-2-yl)urea], for which the IC50 in assay [1] was found to be 31 nM; in the assay on U87MG tumour cells, 299 nM; in the assay on Akt-pS473 in U87MG cells (read-out: U87 Akt-pS473 % Inhibition or IC50, nM (IC50), U87MG cells) it was 26 nM. For the same molecule, the “PI3Ka IC50” value on PI3Kα (p110α/p85α) was determined as 1450 nM.

As to `CCN1CC(C)(C)Oc2nc(N3CC4CCC(C3)O4)nc(-c3ccc(NC(=O)Nc4cccc(C(F)(F)F)c4)cc3)c2C1=O` [Example 147, 1-{4-[6-Ethyl-8,8-dimethyl-2-(8-oxa-3-azabicyclo[3.2.1]oct-3-yl)-5-oxo-5,6,7,8-tetrahydro-9-oxa-1,3,6-triazabenzocyclohepten-4-yl]phenyl}-3-(3-trifluoromethylphenyl)urea], the IC50 is 182 nM in assay [1]; 297 nM with U87MG tumour cells (Homo sapiens, U-87 MG, 72 h); 28 nM in the assay on Akt-pS473 in U87MG cells (setting [2]). The “PI3Ka IC50” value on PI3Kα (p110α/p85α) is reported as more than 10000 nM.

On to `CCN1CC(C)(C)Oc2nc(N3CC4CCC(C3)O4)nc(-c3ccc(NC(=O)Nc4ccnc(N(C)C)c4)c(F)c3)c2C1=O` [Example 78, 1-(2-Dimethylaminopyridin-4-yl)-3-{4-[6-ethyl-8,8-dimethyl-2-(8-oxa-3-azabicyclo[3.2.1]oct-3-yl)-5-oxo-5,6,7,8-tetrahydro-9-oxa-1,3,6-triazabenzocyclohepten-4-yl]-2-fluorophenyl}urea], for which the IC50 in assay [1] is 90 nM; with U87MG tumour cells (Homo sapiens, U-87 MG, 72 h), 83 nM; in the assay with Akt-pS473 in U87MG cells (setting [2]), 28 nM. Moreover, at PI3Kα (p110α/p85α), the “PI3Ka IC50” value turned out to be 6260 nM.

Regarding `CCN1CC(C)(C)Oc2nc(N3CC4CCC(C3)O4)nc(-c3ccc(NC(=O)Nc4cccnc4)cc3)c2C1=O` [Example 112, 1-{4-[6-Ethyl-8,8-dimethyl-2-(8-oxa-3-azabicyclo[3.2.1]oct-3-yl)-5-oxo-5,6,7,8-tetrahydro-9-oxa-1,3,6-triazabenzocyclohepten-4-yl]phenyl}-3-pyridin-3-ylurea], the IC50 amounted to 20 nM in assay [1]; 154 nM with U87MG tumour cells (Homo sapiens, U-87 MG, 72 h); 24 nM in the assay with Akt-pS473 in U87MG cells (setting [2]). Moreover, the “PI3Ka IC50” value at PI3Kα (p110α/p85α) worked out at 2660 nM.

Turning to `CCN1CC(C)(C)Oc2nc(N3CC4CCC(C3)O4)nc(-c3ccc(NC(=O)Nc4cc(C)nc(C)c4)c(F)c3)c2C1=O` [Example 58, 1-(2,6-Dimethylpyridin-4-yl)-3-{4-[6-ethyl-8,8-dimethyl-2-(8-oxa-3-azabicyclo[3.2.1]oct-3-yl)-5-oxo-5,6,7,8-tetrahydro-9-oxa-1,3,6-triazabenzocyclohepten-4-yl]-2-fluorophenyl}urea], the IC50 amounted to 28 nM in assay [1]; 71 nM with U87MG tumour cells (Homo sapiens, U-87 MG, 72 h); 20 nM in the assay on Akt-pS473 in U87MG cells (setting [2]). In addition, on PI3Kα (p110α/p85α), the “PI3Ka IC50” value is recorded as 9470 nM.

For the molecule `COc1ccnc(NC(=O)Nc2ccc(-c3nc(N4CC5CCC(C4)O5)nc4c3C(=O)N(C)CC(C)(C)O4)cc2)c1` [Example 21, 1-(4-methoxypyridin-2-yl)-3-{4-[6,8,8-trimethyl-2-(8-oxa-3-azabicyclo[3.2.1]oct-3-yl)-5-oxo-5,6,7,8-tetrahydro-9-oxa-1,3,6-triazabenzocyclohepten-4-yl]phenyl}urea], the IC50 was 15 nM in assay [1]; 549 nM in the assay with U87MG tumour cells (Homo sapiens, U-87 MG, 72 h); 51 nM in the assay with Akt-pS473 in U87MG cells (setting [2]). Also, the “PI3Ka IC50” value at PI3Kα (p110α/p85α) is given as more than 10000 nM.

Consider `CCN1CC(C)(C)Oc2nc(N3CC4CCC(C3)O4)nc(-c3ccc(NC(=O)NCCOC)c(F)c3)c2C1=O` [Example 131, 1-{4-[6-Ethyl-8,8-dimethyl-2-(8-oxa-3-azabicyclo[3.2.1]oct-3-yl)-5-oxo-5,6,7,8-tetrahydro-9-oxa-1,3,6-triazabenzocyclohepten-4-yl]-2-fluorophenyl}-3-(2-methoxyethyl)urea], for which the IC50 in assay [1] is 383 nM; in the assay with U87MG tumour cells (Homo sapiens, U-87 MG, 72 h), 5900 nM; in the assay with Akt-pS473 in U87MG cells (setting [2]) it was 1990 nM. The “PI3Ka IC50” value on PI3Kα (p110α/p85α) is on record as more than 10000 nM.

`Cc1ccc(NC(=O)Nc2ccc(-c3nc(N4C5CCC4COC5)nc4c3C(=O)N(C)CC(C)(C)O4)cc2)nc1` [Example 48, 1-(5-Methylpyridin-2-yl)-3-{4-[6,8,8-trimethyl-2-(3-oxa-8-azabicyclo[3.2.1]oct-8-yl)-5-oxo-5,6,7,8-tetrahydro-9-oxa-1,3,6-triazabenzocyclohepten-4-yl]phenyl}urea]: the IC50 in assay [1] amounted to 47 nM; with U87MG tumour cells (Homo sapiens, U-87 MG, 72 h) it was 185 nM; in the assay with Akt-pS473 in U87MG cells (setting [2]) it was 86 nM. Besides, the “PI3Ka IC50” value on PI3Kα (p110α/p85α) is given as more than 10000 nM.

In the case of `CCN1CC(C)(C)Oc2nc(N3CCOC[C@@H]3C)nc(-c3ccc(NC(=O)Nc4cc(OC)ccn4)c(F)c3)c2C1=O` [Example 181, 1-{4-[6-Ethyl-8,8-dimethyl-2-((S)-3-methylmorpholin-4-yl)-5-oxo-5,6,7,8-tetrahydro-9-oxa-1,3,6-triazabenzocyclohepten-4-yl]-2-fluorophenyl}-3-(4-methoxypyridin-2-yl)urea], the IC50 in assay [1] was 74 nM; in the assay with U87MG tumour cells (Homo sapiens, U-87 MG, 72 h), 1320 nM; in the assay on Akt-pS473 in U87MG cells (setting [2]), 285 nM. At PI3Kα (p110α/p85α), the “PI3Ka IC50” value came out at 7650 nM.

Regarding `CCN1CC(C)(C)Oc2nc(N3C4CCC3COC4)nc(-c3ccc(NC(=O)Nc4ccncc4)c(F)c3)c2C1=O` [Example 51, 1-{4-[6-Ethyl-8,8-dimethyl-2-(3-oxa-8-azabicyclo[3.2.1]oct-8-yl)-5-oxo-5,6,7,8-tetrahydro-9-oxa-1,3,6-triazabenzocyclohepten-4-yl]-2-fluorophenyl}-3-pyridin-4-ylurea], the IC50 in assay [1] worked out at 20 nM; in the assay on U87MG tumour cells (Homo sapiens, U-87 MG, 72 h) it was 12 nM; with Akt-pS473 in U87MG cells (setting [2]) it was 14 nM. Also, the “PI3Ka IC50” value at PI3Kα (p110α/p85α) was 1900 nM.

For the molecule `CCNC(=O)Nc1ccc(-c2nc(N3CCOCC3)nc3c2C(=O)NCC(C)(C)O3)cc1` [Example 94, 1-[4-(8,8-Dimethyl-2-morpholin-4-yl-5-oxo-5,6,7,8-tetrahydro-9-oxa-1,3,6-triazabenzocyclohepten-4-yl)phenyl]-3-ethylurea], the IC50 was 112 nM in assay [1] and more than 10000 nM in the assay with Akt-pS473 in U87MG cells (setting [2]). In addition, the “PI3Ka IC50” value on PI3Kα (p110α/p85α) stood at 7320 nM.

For the molecule `CN1CC(C)(C)Oc2nc(N3CC4CCC(C3)O4)nc(-c3ccc(NC(=O)Nc4ccc(N5C6CCC5COC6)nc4)c(F)c3)c2C1=O` [Example 245, 1-{2-Fluoro-4-[6,8,8-trimethyl-2-(8-oxa-3-azabicyclo[3.2.1]oct-3-yl)-5-oxo-5,6,7,8-tetrahydro-9-oxa-1,3,6-triazabenzocyclohepten-4-yl]phenyl}-3-[6-(3-oxa-8-azabicyclo[3.2.1]oct-8-yl)pyridin-3-yl]urea], the IC50 in assay [1] is 63 nM; in the assay on Akt-pS473 in U87MG cells (setting [2]) it was 67 nM. For the same molecule, the “PI3Ka IC50” value on PI3Kα (p110α/p85α) is on record as more than 10000 nM.

`CCN1CC(C)(C)Oc2nc(N3CC4CCC(C3)O4)nc(-c3ccc(NC(=O)NCC(C)(C)O)c(F)c3)c2C1=O` [Example 24, 1-{4-[6-ethyl-8,8-dimethyl-2-(8-oxa-3-azabicyclo[3.2.1]oct-3-yl)-5-oxo-5,6,7,8-tetrahydro-9-oxa-1,3,6-triazabenzocyclohepten-4-yl]-2-fluorophenyl}-3-(2-hydroxy-2-methylpropyl)urea]: the IC50 in assay [1] was 1070 nM; with U87MG tumour cells (Homo sapiens, U-87 MG, 72 h), more than 10000 nM; with Akt-pS473 in U87MG cells (setting [2]), more than 1000 nM.

One may read the inhibition as the share of the control response that was lost under treatment. On to `CCN1CC(C)(C)Oc2nc(N3CC4CCC(C3)O4)nc(-c3ccc(NC(=O)OC[C@@H](C)O)c(F)c3)c2C1=O` [Example 239, {4-[6-Ethyl-8,8-dimethyl-2-(8-oxa-3-azabicyclo[3.2.1]oct-3-yl)-5-oxo-5,6,7,8-tetrahydro-9-oxa-1,3,6-triazabenzocyclohepten-4-yl]-2-fluorophenyl}carbamic acid (R)-2-hydroxypropyl ester], for which the IC50 in assay [1] was 1070 nM; in the assay with U87MG tumour cells (Homo sapiens, U-87 MG, 72 h) it was more than 10000 nM. The inhibition at 1 µM in the assay with Akt-pS473 in U87MG cells (Homo sapiens, U-87 MG, read-out: U87 Akt-pS473 % Inhibition) came out at 38%.
